Measured values taken from patent publication US20190365906A1, “RANDOM COPOLYMER THERAPEUTIC AGENT CARRIERS AND ASSEMBLIES THEREOF” (University of Washington through its Center for …, priority 2013, published 2019).

Test system: HeLa cells
Assay: Live-cell fluorescence microscopy of intracellular distribution of transferrin-polymer conjugates
Assay type: cell-based, human
Settings: 1 hour at 37° C.
Procedure: The intracellular distribution of fluorescently labeled transferrin-polymer conjugates was evaluated in cells using live-cell fluorescence microscopy. Cells were seeded in chamber slides at a concentration of 5000 cells/well. After allowing the cells adhere for 18 hours the media was replaced with fresh media containing the appropriate concentration of the copolymer-transferrin conjugates. Thirty minutes prior to imaging Hoechst (5 μg/mL) was added to the media and allowed to incubate at 37° C. After this time, the media was carefully aspirated and replaced with PBS. Immediately prior to imaging individual wells were aspirated and then treated with 2 μL of a 10 mg/mL cell mask stock in 200 μL of ice cold PBS. After 3 minutes the PBS was removed and washed three times with additional ice cold PBS. The mediChamber slides were placed on a Live-Cell Fluorescence Microscope (Nikon Ti-E) equipped with an environmental control chamber. […] After image acquisition, image stacks were deconvolved using object-based measurement software, Velocity (Perkin Elmer), to remove out-of focus fluorescence for the identification of conjugate containing compartments. To deconvolved image stacks, point spread functions were calculated for the green, blue, and deep red channel and applied using 25 iterations to reach a near 100 percent confidence interval. […]

**Q.** “fluorescently (ALEXA 488) labeled Transferrin” was tested. Which “intracellular localisation of fluorescence” value did it give?
**A.** Its value is “strongly localized within endosomes/lysosomes”.
